{
  "source": "patent US20060035317A1",
  "about": "“Effect of treatment with 4,5-dihydroxy-2-cyclopenten-1-one (dhcp) on gene expression and quorum-sensing in bacteria” (priority 2002, published 2006)",
  "tested_on": "AI-2 activity, V. harveyi reporter strain BB170",
  "experiment": "AI-2 assay (luminescence of reporter strain)",
  "assay_type": "cell-based",
  "description": "FIGS. 2A and 2B are graphs showing DHCP inhibits AI-2 activity. The AI-2 activity assay was carried out as described in Materials and Methods section of Example 1. The luminescence seen with V. harveyi BB152 was assumed as 100% and the other activities were expressed as relative %. In FIG. 2A, the lanes are as follows: Sterile AB medium, lane 1; V. harveyi BB152 culture fluid, lane 2; DHCP (250 μM), lane 3; DHCP (250 μM) plus V. harveyi BB152 culture fluid, lane 4. In FIG. 2B, DHCP was added to the reaction mixtures after maximum luminescence was generated by AI-2, at a concentration of 250 μM (closed circles) and 100 μM (open squares). The corresponding control activity of AI-2 without DHCP addition is also shown (open triangles). The light production was monitored at various time points with a liquid scintillation counter.\nThe AI-2 assays using V. harveyi reporter strain (BB170) were carried out as described by Surette and Bassler (Surette et al., 1999). Cell-free culture fluid from V. harveyi BB152 strain was used as a positive control. Sterile AB medium was used a negative control. Briefly, the V. harveyi BB170 strain was grown overnight with aeration at 30° C. in the AB medium and the cells were then diluted 1:5000 in the fresh medium. The diluted culture (90 μl) was added in the assay mixture containing 10 μl of AB medium or cell-free culture fluid of V. harveyi BB152/DHCP (100-250 μM). To check the effect of DHCP on the light production by AI-2, it was added to the reaction mixture after the maximum luminescence was achieved. The light production was monitored with a liquid scintillation counter.\nIn the present study, the AI-2 assay designed by Suretter and Bassler (Surette et al., 1999) was used. The V. harveyi BB170 reporter strain has the quorum-sensing phenotype, sensor 1^−, sensor 2^+. It induces lux expression through the signaling system 2 detector. Addition of 10% cell-free culture fluid prepared from V. harveyi BB152 strain (containing the system 2 autoinducer) stimulates luminescence expression in the reporter strain. […] The laboratory of the present inventors examined if DHCP inhibits the activity of AI-2. […] Sterile AB medium was used as a negative control (lane 1). […] It has been reported that the AI-2 gave maximum luminescence at approximately 10 μM concentration (Schauder et al., 2001). It should be noted that the DHCP concentration used in the present assay was in excess of the AI-2 concentration. It was also tested if DHCP can inhibit AI-2 activity when it is added after maximum luminescence is generated by AI-2. […] When it was added at the concentration of 100 μM (open squares), the AI-2 activity was reduced to zero after 40 min. The corresponding control activity without DHCP addition (open triangles) was completely stable.",
  "data": [
    {"smiles": "O=C1C=CC(O)C1O", "note": "(stereo not shown) [DHCP, 4,5-dihydroxy-2-cyclopenten-1-one]", "values": [
      {"measurement": "Time until AI-2 activity was reduced to zero", "setting": "DHCP 100 μM added after maximum luminescence generated by AI-2, FIG. 2B", "result": 40, "unit": "min"},
      {"measurement": "Time until AI-2 activity was reduced to zero", "setting": "DHCP 250 μM added after maximum luminescence generated by AI-2, FIG. 2B", "result": "≤ 8", "unit": "min"},
      {"measurement": "Inhibition of AI-2 activity", "setting": "DHCP 250 μM added immediately before AI-2 containing cell-free extract of V. harveyi BB152, FIG. 2A lane 4", "result": "completely inhibited"},
      {"measurement": "AI-2 activity (luminescence) of DHCP itself", "setting": "DHCP 250 μM alone, FIG. 2A lane 3", "result": "did not show AI-2 activity"}
    ]}
  ]
}
